Patent publication US12139520B2 (priority 2020, dated 2024)
Bridge positions count the residues as written; N and C are the ends. Square brackets hold non-standard residues; d marks the D form. Peptide text beside a SMILES is read from it. Hyp = O=C(O)[C@@H]1C[C@@H](O)CN1; Cit = NC(=O)NCCC[C@H](N)C(=O)O

How the values were obtained:
[1] = Physical stability of peptide analogues (Thioflavin T fibrillation); assay type: physicochemical; conditions: maximum ThT signal normalized between hAMY maximum and buffer background; 40° C., shaking, four days; pH 7 per table title
Procedure, shortened: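 1 h in 50 mM NaOAc pH 4 / 50 mM NaPi pH 7; + ThT 4 μM final; 40 °C, 700 rpm linear shake 5 min pre-read; ex 450, em 480 nm q10 min × 4 d; LOESS smoothing; max signal normalised to hAMY max vs buffer blank.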

hAM1 receptor = hAM1 receptor (Homo sapiens, UniProt O60895+Q16602); experiment: cAMP assay for in vitro receptor activation, hAM1-R; assay type: cell-based; conditions: cAMP assay, hAM1 receptor; read-out: hAM1R EC50
Procedure, shortened: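 A subcloned monoclonal line stably expressing hAM1 receptor is thawed and plated at 8000 cells/well. The assay buffer is DPBS with 0.05% casein and 0.5 mM IBMX, and receptor activation is followed by cAMP levels.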

hAMY3 receptor = biological target: T1, hAMY3 receptor (Homo sapiens, UniProt O60896+P30988); experiment: cAMP assay for in vitro receptor activation, hAMY3-R; assay type: cell-based; conditions: cAMP assay, hAMY3 receptor; read-out: hAMY3R EC50
T1 sequence (P30988 25-474): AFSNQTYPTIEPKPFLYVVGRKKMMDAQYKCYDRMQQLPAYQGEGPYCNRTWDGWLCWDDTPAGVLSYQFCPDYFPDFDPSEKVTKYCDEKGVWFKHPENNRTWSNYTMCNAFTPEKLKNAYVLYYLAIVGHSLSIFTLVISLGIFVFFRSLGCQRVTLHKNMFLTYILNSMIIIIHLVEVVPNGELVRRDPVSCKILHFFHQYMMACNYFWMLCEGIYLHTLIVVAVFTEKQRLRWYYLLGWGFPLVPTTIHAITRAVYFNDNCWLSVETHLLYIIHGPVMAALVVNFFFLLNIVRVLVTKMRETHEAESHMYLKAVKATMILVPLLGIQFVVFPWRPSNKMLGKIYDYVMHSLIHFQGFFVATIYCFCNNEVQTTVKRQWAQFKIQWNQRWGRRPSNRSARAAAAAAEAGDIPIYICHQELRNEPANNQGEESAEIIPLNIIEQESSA
T1 sequence (O60896 24-148 partner): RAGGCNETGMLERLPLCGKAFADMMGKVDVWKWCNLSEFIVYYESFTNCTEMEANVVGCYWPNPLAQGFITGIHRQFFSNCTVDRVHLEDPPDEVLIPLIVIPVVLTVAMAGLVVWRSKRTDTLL
Procedure, shortened: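 Graded compound concentrations were applied for 30 min at room temperature to stably hAMY3-expressing cells in DPBS, 0.05% casein, 0.5 mM IBMX; cAMP detected by TR-FRET.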

Chain of hAM1 receptor (Q16602 23-461): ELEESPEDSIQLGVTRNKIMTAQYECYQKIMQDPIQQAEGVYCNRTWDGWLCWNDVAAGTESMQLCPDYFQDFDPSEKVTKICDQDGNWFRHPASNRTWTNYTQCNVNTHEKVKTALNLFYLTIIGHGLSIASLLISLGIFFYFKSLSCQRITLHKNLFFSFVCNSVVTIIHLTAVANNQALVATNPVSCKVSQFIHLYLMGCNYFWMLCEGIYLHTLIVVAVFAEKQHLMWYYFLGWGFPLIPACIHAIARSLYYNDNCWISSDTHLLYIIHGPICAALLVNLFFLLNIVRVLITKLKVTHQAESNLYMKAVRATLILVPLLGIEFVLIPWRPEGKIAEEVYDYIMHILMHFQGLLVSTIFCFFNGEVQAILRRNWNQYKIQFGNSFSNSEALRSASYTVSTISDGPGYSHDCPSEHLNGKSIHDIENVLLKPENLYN
Chain of hAM1 receptor (O60895 43-175 partner): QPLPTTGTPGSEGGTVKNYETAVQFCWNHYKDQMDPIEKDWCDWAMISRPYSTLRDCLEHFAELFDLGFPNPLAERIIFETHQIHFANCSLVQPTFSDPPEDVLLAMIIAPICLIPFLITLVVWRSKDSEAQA

Row | Compound | Max ThT signal (%) [1] | EC50 (hAM1 receptor) | EC50 (hAMY3 receptor)
1 | CC[C@H](C)[C@H](NC(=O)[C@H](CCC(N)=O)NC(=O)[C@H](CC(=O)O)NC(=O)[C@H](C)NC(=O)[C@H](CC(C)C)NC(=O)[C@H](CCCNC(N)=O)NC(=O)[C@H](C)NC(=O)[C@@H](NC(=O)[C@@H](NC(=O)[C@@H]1CSSC[C@H](NC(=O)[C@@H](N)CCCCN)C(=O)N[C@@H](CC(N)=O)C(=O)N[C@@H]([C@@H](C)O)C(=O)N[C@@H](CO)C(=O)N[C@@H]([C@@H](C)O)C(=O)N1)[C@@H](C)O)C(C)C)C(=O)N[C@H](C(=O)N[C@@H](CCC(N)=O)C(=O)N[C@@H](Cc1ccccc1)C(=O)N[C@@H](CO)C(=O)N[C@@H](CC(=O)O)C(=O)N[C@@H](CCCCN)C(=O)N[C@@H](CC(=O)O)C(=O)N[C@@H](CCCCN)C(=O)N[C@@H](C)C(=O)N[C@@H](CC(N)=O)C(=O)N[C@H](C(=O)N[C@@H](CO)C(=O)N1CCC[C@H]1C(=O)N1CCC[C@H]1C(=O)N[C@H](C(=O)N[C@@H](CCC(=O)O)C(=O)N[C@H](C(=O)NCC(=O)N1CCC[C@H]1C(=O)N[C@@H](CC(N)=O)C(=O)N[C@@H](CO)C(=O)N1C[C@H](O)C[C@H]1C(N)=O)C(C)C)[C@@H](C)O)C(C)C)[C@@H](C)O [compound 247] (H-KCNTSTCTVA[Cit]LADQITQFSDKDKANVSPPTEVGPNS[Hyp]-NH2; disulfide 2-7; N-terminus assumed) | 1.350% | > 5000 nM | 0.004 nM
2 | CC[C@H](C)[C@H](NC(=O)[C@H](CCC(N)=O)NC(=O)[C@H](Cc1c[nH]cn1)NC(=O)[C@H](C)NC(=O)[C@H](CC(C)C)NC(=O)[C@H](CCCNC(=N)N)NC(=O)[C@H](CCC(N)=O)NC(=O)[C@@H](NC(=O)[C@@H](NC(=O)[C@@H]1CSSC[C@H](NC(=O)CN)C(=O)N[C@@H](CCCNC(=N)N)C(=O)N[C@@H]([C@@H](C)O)C(=O)NCC(=O)N[C@@H]([C@@H](C)O)C(=O)N1)[C@@H](C)O)C(C)C)C(=O)N[C@@H](Cc1ccc(O)cc1)C(=O)N[C@@H](CCC(N)=O)C(=O)N[C@@H](Cc1ccccc1)C(=O)N[C@H](C(=O)N[C@@H](CC(N)=O)C(=O)N[C@@H](CCCCN)C(=O)N[C@@H](CC(=O)O)C(=O)N[C@@H](CCCCN)C(=O)N[C@@H](CC(=O)O)C(=O)N[C@@H](CC(N)=O)C(=O)N[C@H](C(=O)N[C@@H](C)C(=O)N1CCC[C@H]1C(=O)N[C@@H](CCCNC(=N)N)C(=O)N[C@@H](CO)C(=O)N[C@@H](CCCCN)C(=O)N[C@H](C(=O)N[C@@H](CO)C(=O)N1CCC[C@H]1C(=O)N[C@@H](CCC(N)=O)C(=O)N[C@H](C(=O)N[C@@H](Cc1c[nH]c2ccccc12)C(N)=O)[C@@H](C)O)[C@@H](C)CC)C(C)C)[C@@H](C)O [compound 226] (H-GCRTGTCTVQRLAHQIYQFTNKDKDNVAPRSKISPQTW-NH2; disulfide 2-7; N-terminus assumed) | 27.000% | > 5000 nM | 0.186 nM
3 | CC[C@H](C)[C@H](NC(=O)[C@H](CCC(N)=O)NC(=O)[C@H](Cc1c[nH]cn1)NC(=O)[C@H](C)NC(=O)[C@H](CC(C)C)NC(=O)[C@H](CCCNC(N)=O)NC(=O)[C@H](CCC(N)=O)NC(=O)[C@@H](NC(=O)[C@@H](NC(=O)[C@@H]1CSSC[C@H](NC(=O)[C@@H](N)CCCCN)C(=O)N[C@@H](CC(N)=O)C(=O)N[C@@H]([C@@H](C)O)C(=O)N[C@@H](C)C(=O)N[C@@H]([C@@H](C)O)C(=O)N1)[C@@H](C)O)C(C)C)C(=O)N[C@@H](Cc1ccc(O)cc1)C(=O)N[C@@H](CCC(N)=O)C(=O)N[C@@H](Cc1ccccc1)C(=O)N[C@@H](CC(=O)O)C(=O)N[C@@H](CCCCN)C(=O)N[C@@H](CC(=O)O)C(=O)N[C@@H](CCCCN)C(=O)N[C@@H](CC(=O)O)C(=O)N[C@@H](CC(N)=O)C(=O)N[C@H](C(=O)N[C@@H](C)C(=O)N1CCC[C@H]1C(=O)N1CCC[C@H]1C(=O)N[C@H](C(=O)N[C@@H](CC(N)=O)C(=O)N[C@H](C(=O)NCC(=O)N[C@@H](CO)C(=O)N[C@@H](CC(N)=O)C(=O)NCC(=O)N1C[C@H](O)C[C@H]1C(N)=O)C(C)C)[C@@H](C)O)C(C)C [compound 265] (H-KCNTATCTVQ[Cit]LAHQIYQFDKDKDNVAPPTNVGSNG[Hyp]-NH2; disulfide 2-7; N-terminus assumed) | 26.550% | > 5000 nM | 0.03 nM

Continued, values first:

Row | Max ThT signal (%) [1] | EC50 (hAM1 receptor) | EC50 (hAMY3 receptor) | Compound
4 | 4.800% | 12 nM | 0.021 nM | CC[C@H](C)[C@H](NC(=O)[C@H](CCC(N)=O)NC(=O)[C@H](Cc1c[nH]cn1)NC(=O)[C@H](C)NC(=O)[C@H](CC(C)C)NC(=O)[C@H](CCCNC(=N)N)NC(=O)[C@H](CCC(N)=O)NC(=O)[C@@H](NC(=O)[C@@H](NC(=O)[C@@H]1CSSC[C@H](NC(=O)CN)C(=O)N[C@@H](CCCNC(=N)N)C(=O)N[C@@H](Cc2ccccc2)C(=O)NCC(=O)N[C@@H]([C@@H](C)O)C(=O)N1)[C@@H](C)O)C(C)C)C(=O)N[C@@H](Cc1ccc(O)cc1)C(=O)N[C@@H](CCC(N)=O)C(=O)N[C@@H](Cc1ccccc1)C(=O)N[C@H](C(=O)N[C@@H](CC(=O)O)C(=O)N[C@@H](CCCCN)C(=O)N[C@@H](CC(=O)O)C(=O)N[C@@H](CCCCN)C(=O)N[C@@H](CC(=O)O)C(=O)N[C@@H](CC(N)=O)C(=O)N[C@H](C(=O)N[C@@H](C)C(=O)N1CCC[C@H]1C(=O)N[C@@H](CCCNC(=N)N)C(=O)N[C@@H](CO)C(=O)N[C@@H](CC(N)=O)C(=O)N[C@H](C(=O)NCC(=O)N1CCC[C@H]1C(=O)N[C@@H](CCC(N)=O)C(=O)NCC(=O)N[C@@H](Cc1ccc(O)cc1)C(N)=O)C(C)C)C(C)C)[C@@H](C)O [compound 374] (H-GCRFGTCTVQRLAHQIYQFTDKDKDNVAPRSNVGPQGY-NH2; disulfide 2-7; N-terminus assumed)
5 | 20.450% | > 5000 nM | 0.012 nM | CC[C@H](C)[C@H](NC(=O)[C@H](CCC(N)=O)NC(=O)[C@H](Cc1c[nH]cn1)NC(=O)[C@H](C)NC(=O)[C@H](CC(C)C)NC(=O)[C@H](Cc1c[nH]c2ccccc12)NC(=O)[C@H](CCC(N)=O)NC(=O)[C@@H](NC(=O)[C@@H](NC(=O)[C@@H]1CSSC[C@H](NC(=O)[C@@H](N)CCCCN)C(=O)N[C@@H](CC(N)=O)C(=O)N[C@@H]([C@@H](C)O)C(=O)N[C@@H](C)C(=O)N[C@@H]([C@@H](C)O)C(=O)N1)[C@@H](C)O)C(C)C)C(=O)N[C@@H](Cc1ccc(O)cc1)C(=O)N[C@@H](CCC(N)=O)C(=O)N[C@@H](Cc1ccccc1)C(=O)N[C@H](C(=O)N[C@@H](CC(=O)O)C(=O)N[C@@H](CCCCN)C(=O)N[C@@H](CC(=O)O)C(=O)N[C@@H](CCCCN)C(=O)N[C@@H](CC(=O)O)C(=O)N[C@@H](CC(N)=O)C(=O)N[C@H](C(=O)N[C@@H](C)C(=O)N1CCC[C@H]1C(=O)N[C@@H](C)C(=O)N[C@H](C(=O)N[C@@H](CC(N)=O)C(=O)N[C@H](C(=O)NCC(=O)N[C@@H](CO)C(=O)N[C@@H](CC(N)=O)C(=O)NCC(=O)N1C[C@H](O)C[C@H]1C(N)=O)C(C)C)[C@@H](C)O)C(C)C)[C@@H](C)O [compound 316] (H-KCNTATCTVQWLAHQIYQFTDKDKDNVAPATNVGSNG[Hyp]-NH2; disulfide 2-7)
6 | 20.050% | > 5000 nM | 0.047 nM | CC[C@H](C)[C@H](NC(=O)[C@H](CCCCN)NC(=O)[C@@H](NC(=O)[C@H](CCCNC(=N)N)NC(=O)[C@@H]1CCCN1C(=O)[C@H](C)NC(=O)[C@@H](NC(=O)[C@H](CC(N)=O)NC(=O)[C@H](CC(=O)O)NC(=O)[C@H](CCCCN)NC(=O)[C@H](CC(=O)O)NC(=O)[C@H](CCCCN)NC(=O)[C@H](CC(=O)O)NC(=O)[C@@H](NC(=O)[C@H](Cc1ccccc1)NC(=O)[C@H](CCC(N)=O)NC(=O)[C@H](Cc1ccc(O)cc1)NC(=O)[C@@H](NC(=O)[C@H](CCC(N)=O)NC(=O)[C@H](Cc1c[nH]cn1)NC(=O)[C@H](C)NC(=O)[C@H](CC(C)C)NC(=O)[C@H](Cc1c[nH]c2ccccc12)NC(=O)[C@H](CCC(N)=O)NC(=O)[C@@H](NC(=O)[C@@H](NC(=O)[C@@H]1CSSC[C@H](NC(=O)CN)C(=O)N[C@@H](CCCNC(=N)N)C(=O)N[C@@H]([C@@H](C)O)C(=O)NCC(=O)N[C@@H]([C@@H](C)O)C(=O)N1)[C@@H](C)O)C(C)C)[C@@H](C)CC)[C@@H](C)O)C(C)C)[C@@H](C)O)C(=O)NCC(=O)N1CCC[C@H]1C(=O)N[C@@H](CC(N)=O)C(=O)NCC(=O)N1C[C@H](O)C[C@H]1C(N)=O [compound 339] (H-GCRTGTCTVQWLAHQIYQFTDKDKDNVAPRTKIGPNG[Hyp]-NH2; disulfide 2-7; N-terminus assumed)
